What was measured:
Assay in all cases: LanthaScreen Binding - Eu-anti-GST
Settings in all cases: read-out: Percentage of inhibition
BMPR1A (ALK3) = BMPR1A (ALK3) (Homo sapiens, UniProt P36894)
Description: (§1) We further evaluated the selectivity profile of compound 55 on a larger panel of kinases (SelectScreen Whole Panel, Life Technologies). The inhibition profile of 55, evaluated at 1 μM, is depicted on a dendrogram on Figure 3 where kinases inhibited by a minimum of 80% are shown. A full list of the kinases tested is shown on Table S1 in supplementary information.

STK38L (NDR2) = biological target: T1, STK38L (NDR2) (Homo sapiens, UniProt Q9Y2H1)
T1 construct: purchased Life Technologies (SelectScreen)
Description: as §1

TAOK1 = biological target: T2, TAOK1 (Homo sapiens, UniProt Q7L7X3)
T2 construct: purchased Life Technologies
Description: as §1

CDK14 (PFTK1)/cyclin Y = biological target: T3, CDK14 (PFTK1)/cyclin Y (Homo sapiens, UniProt O94921)
T3 construct: purchased Life Technologies
Description: as §1

TAOK3 (JIK) = biological target: T4, TAOK3 (JIK) (Homo sapiens, UniProt Q9H2K8)
T4 construct: purchased Life Technologies (SelectScreen service)
Description: as §1

RIPK3 = biological target: T5, RIPK3 (Homo sapiens, UniProt Q9Y572)
T5 construct: purchased Life Technologies (SelectScreen Whole Panel)
Description: as §1

ABL1 M351T = ABL1 M351T (Homo sapiens, UniProt P00519, M351T)
Description: as §1

TLK2 = biological target: T6, TLK2 (Homo sapiens, UniProt Q86UE8)
T6 construct: purchased Life Technologies (SelectScreen service)
Description: as §1

DDR2 N456S = biological target: T7, DDR2 N456S (Homo sapiens, UniProt Q16832, N456S)
T7 construct: purchased Life Technologies
Description: as §1

NEK8 = biological target: T8, NEK8 (Homo sapiens, UniProt Q86SG6)
T8 construct: purchased Life Technologies (SelectScreen Whole Panel service)
Description: as §1

SLK = biological target: T9, SLK (Homo sapiens, UniProt Q9H2G2)
T9 construct: purchased Life Technologies
Description: as §1

KIT Y823D = biological target: T10, KIT Y823D (Homo sapiens, UniProt P10721, Y823D)
T10 construct: purchased Life Technologies
Description: as §1

CDK5 (Inactive) = CDK5 (Inactive) (Homo sapiens, UniProt Q00535)
Description: as §1

RET G691S = biological target: T11, RET G691S (Homo sapiens, UniProt P07949, G691S)
T11 construct: purchased Life Technologies (SelectScreen service)
Description: as §1

ERN1 = biological target: T12, ERN1 (Homo sapiens, UniProt O75460)
T12 construct: purchased Life Technologies (SelectScreen Whole Panel service)
Description: as §1

CAMK2G (CaMKII gamma) = biological target: T13, CAMK2G (CaMKII gamma) (Homo sapiens, UniProt Q13555)
T13 construct: purchased Life Technologies
Description: as §1

BRAF V599E = biological target: T14, BRAF V599E (Homo sapiens, UniProt P15056, V600E)
T14 construct: purchased Life Technologies
Description: as §1

ALK T1151_L1152insT = biological target: T15, ALK T1151_L1152insT (Homo sapiens, UniProt Q9UM73, INS1151T)
T15 construct: purchased Life Technologies
Description: as §1

CDK11 (Inactive) = CDK11 (Inactive) (Homo sapiens, UniProt Q9BWU1)
Description: as §1

CDK2/cyclin O = CDK2/cyclin O (Homo sapiens, UniProt P24941)
Description: as §1

KIT V559D T670I = biological target: T16, KIT V559D T670I (Homo sapiens, UniProt P10721, T670I/V559D)
T16 construct: purchased Life Technologies
Description: as §1

PRKACG (PRKAC gamma) = biological target: T17, PRKACG (PRKAC gamma) (Homo sapiens, UniProt P22612)
T17 construct: purchased Life Technologies (SelectScreen Whole Panel service)
Description: as §1

AAK1 = biological target: T18, AAK1 (Homo sapiens, UniProt Q2M2I8)
T18 construct: purchased Life Technologies
Description: as §1

MAP2K5 (MEK5) = biological target: T19, MAP2K5 (MEK5) (Homo sapiens, UniProt Q13163)
T19 construct: purchased Life Technologies (SelectScreen service)
Description: as §1

STK32C (YANK3) = biological target: T20, STK32C (YANK3) (Homo sapiens, UniProt Q86UX6)
T20 construct: purchased Life Technologies (SelectScreen Whole Panel)
Description: as §1

FGFR3 G697C = biological target: T21, FGFR3 G697C (Homo sapiens, UniProt P22607, G697C)
T21 construct: purchased Life Technologies
Description: as §1

STK38 (NDR) = biological target: T22, STK38 (NDR) (Homo sapiens, UniProt Q15208)
T22 construct: purchased Life Technologies (SelectScreen Whole Panel service)
Description: as §1

NUAK2 = biological target: T23, NUAK2 (Homo sapiens, UniProt Q9H093)
T23 construct: purchased Life Technologies (SelectScreen Whole Panel)
Description: as §1

MLK4 = biological target: T24, MLK4 (Homo sapiens, UniProt Q5TCX8)
T24 construct: purchased Life Technologies (SelectScreen Whole Panel service)
Description: as §1

LIMK2 = biological target: T25, LIMK2 (Homo sapiens, UniProt P53671)
T25 construct: purchased Life Technologies (SelectScreen Whole Panel service)
Description: as §1

PRKACB (PRKAC beta) = biological target: T26, PRKACB (PRKAC beta) (Homo sapiens, UniProt P22694)
T26 construct: purchased Life Technologies
Description: as §1

HUNK = HUNK (Homo sapiens, UniProt P57058)
Description: as §1

ABL1 H396P = ABL1 H396P (Homo sapiens, UniProt P00519, H396P)
Description: as §1

MASTL = biological target: T27, MASTL (Homo sapiens, UniProt Q96GX5)
T27 construct: purchased Life Technologies (SelectScreen Whole Panel)
Description: as §1

ALK F1174L = biological target: T28, ALK F1174L (Homo sapiens, UniProt Q9UM73, F1174L)
T28 construct: purchased Life Technologies
Description: as §1

PKN2 (PRK2) = biological target: T29, PKN2 (PRK2) (Homo sapiens, UniProt Q16513)
T29 construct: purchased Life Technologies
Description: as §1

DDR2 T654M = biological target: T30, DDR2 T654M (Homo sapiens, UniProt Q16832, T654M)
T30 construct: purchased Life Technologies (SelectScreen service)
Description: as §1

KIT N822K = biological target: T31, KIT N822K (Homo sapiens, UniProt P10721, N822K)
T31 construct: purchased Life Technologies (SelectScreen Whole Panel service)
Description: as §1

GRK1 = biological target: T32, GRK1 (Homo sapiens, UniProt Q15835)
T32 construct: purchased Life Technologies (SelectScreen Whole Panel)
Description: as §1

T15 sequence (Q9UM73 with tags, fused parts or gaps INS1151T limits assumed): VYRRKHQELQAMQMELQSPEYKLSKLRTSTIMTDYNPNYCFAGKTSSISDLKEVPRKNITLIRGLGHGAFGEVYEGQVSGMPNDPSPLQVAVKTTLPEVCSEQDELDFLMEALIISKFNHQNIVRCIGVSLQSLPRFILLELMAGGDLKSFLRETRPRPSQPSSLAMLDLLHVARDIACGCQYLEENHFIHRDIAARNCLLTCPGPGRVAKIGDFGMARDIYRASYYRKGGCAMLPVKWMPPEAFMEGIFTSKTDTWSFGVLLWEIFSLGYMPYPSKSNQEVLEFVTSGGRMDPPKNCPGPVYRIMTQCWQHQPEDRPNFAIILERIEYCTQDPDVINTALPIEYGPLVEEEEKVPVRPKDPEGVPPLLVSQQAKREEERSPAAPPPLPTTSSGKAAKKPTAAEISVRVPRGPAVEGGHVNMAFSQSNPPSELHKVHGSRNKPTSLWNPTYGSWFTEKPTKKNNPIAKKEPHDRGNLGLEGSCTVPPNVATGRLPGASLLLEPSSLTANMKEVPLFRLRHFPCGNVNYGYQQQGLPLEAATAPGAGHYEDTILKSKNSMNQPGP
T12 sequence (O75460 19-977): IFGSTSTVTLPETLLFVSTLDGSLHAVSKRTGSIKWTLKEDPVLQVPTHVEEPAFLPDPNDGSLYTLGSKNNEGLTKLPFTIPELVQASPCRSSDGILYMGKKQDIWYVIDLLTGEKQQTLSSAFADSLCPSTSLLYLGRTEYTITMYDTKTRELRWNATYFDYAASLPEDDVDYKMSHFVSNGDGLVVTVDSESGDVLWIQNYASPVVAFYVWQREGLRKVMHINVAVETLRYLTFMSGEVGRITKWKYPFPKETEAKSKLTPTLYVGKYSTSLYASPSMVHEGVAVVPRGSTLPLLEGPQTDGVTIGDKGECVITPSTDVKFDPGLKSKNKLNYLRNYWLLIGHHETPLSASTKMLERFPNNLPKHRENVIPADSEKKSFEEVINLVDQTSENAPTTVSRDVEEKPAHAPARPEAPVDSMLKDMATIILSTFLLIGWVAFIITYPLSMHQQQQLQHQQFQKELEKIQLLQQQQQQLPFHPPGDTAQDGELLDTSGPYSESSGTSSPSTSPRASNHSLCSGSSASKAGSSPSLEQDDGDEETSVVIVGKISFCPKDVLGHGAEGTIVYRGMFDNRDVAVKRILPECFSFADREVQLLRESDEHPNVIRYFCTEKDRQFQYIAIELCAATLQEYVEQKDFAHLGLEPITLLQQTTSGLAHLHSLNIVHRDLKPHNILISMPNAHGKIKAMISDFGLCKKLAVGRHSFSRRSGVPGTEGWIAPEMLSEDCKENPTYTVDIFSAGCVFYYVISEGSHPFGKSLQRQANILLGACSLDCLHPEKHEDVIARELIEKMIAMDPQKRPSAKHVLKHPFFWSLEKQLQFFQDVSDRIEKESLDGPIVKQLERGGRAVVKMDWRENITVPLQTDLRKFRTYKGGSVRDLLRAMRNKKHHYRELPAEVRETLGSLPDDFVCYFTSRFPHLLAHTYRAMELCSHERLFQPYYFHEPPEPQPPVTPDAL
T4 sequence (Q9H2K8 whole entry): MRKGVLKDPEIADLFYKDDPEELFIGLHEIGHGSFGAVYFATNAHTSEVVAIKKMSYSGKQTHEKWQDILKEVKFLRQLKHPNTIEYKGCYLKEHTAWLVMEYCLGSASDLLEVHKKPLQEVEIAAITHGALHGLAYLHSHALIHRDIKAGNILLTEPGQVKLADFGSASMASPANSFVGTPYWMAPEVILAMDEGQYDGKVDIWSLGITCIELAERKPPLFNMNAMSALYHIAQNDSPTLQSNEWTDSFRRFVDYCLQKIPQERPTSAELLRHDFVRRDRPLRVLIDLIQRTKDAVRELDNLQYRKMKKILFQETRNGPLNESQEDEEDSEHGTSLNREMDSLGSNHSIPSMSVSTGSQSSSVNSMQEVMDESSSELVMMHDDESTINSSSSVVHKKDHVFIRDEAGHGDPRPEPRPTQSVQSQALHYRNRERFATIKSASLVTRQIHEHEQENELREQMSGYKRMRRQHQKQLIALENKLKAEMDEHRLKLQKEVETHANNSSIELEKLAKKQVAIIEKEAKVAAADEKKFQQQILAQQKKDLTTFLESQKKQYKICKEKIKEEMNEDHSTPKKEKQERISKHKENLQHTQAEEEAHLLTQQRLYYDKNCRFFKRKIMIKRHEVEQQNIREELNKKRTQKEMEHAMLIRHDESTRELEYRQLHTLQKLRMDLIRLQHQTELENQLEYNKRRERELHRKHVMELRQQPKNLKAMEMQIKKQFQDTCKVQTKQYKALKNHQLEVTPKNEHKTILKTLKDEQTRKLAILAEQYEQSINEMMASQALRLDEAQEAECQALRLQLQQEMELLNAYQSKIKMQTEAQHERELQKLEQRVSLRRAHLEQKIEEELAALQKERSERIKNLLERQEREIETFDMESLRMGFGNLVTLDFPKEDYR
T16 sequence (P10721 26-976 V559D/T670I): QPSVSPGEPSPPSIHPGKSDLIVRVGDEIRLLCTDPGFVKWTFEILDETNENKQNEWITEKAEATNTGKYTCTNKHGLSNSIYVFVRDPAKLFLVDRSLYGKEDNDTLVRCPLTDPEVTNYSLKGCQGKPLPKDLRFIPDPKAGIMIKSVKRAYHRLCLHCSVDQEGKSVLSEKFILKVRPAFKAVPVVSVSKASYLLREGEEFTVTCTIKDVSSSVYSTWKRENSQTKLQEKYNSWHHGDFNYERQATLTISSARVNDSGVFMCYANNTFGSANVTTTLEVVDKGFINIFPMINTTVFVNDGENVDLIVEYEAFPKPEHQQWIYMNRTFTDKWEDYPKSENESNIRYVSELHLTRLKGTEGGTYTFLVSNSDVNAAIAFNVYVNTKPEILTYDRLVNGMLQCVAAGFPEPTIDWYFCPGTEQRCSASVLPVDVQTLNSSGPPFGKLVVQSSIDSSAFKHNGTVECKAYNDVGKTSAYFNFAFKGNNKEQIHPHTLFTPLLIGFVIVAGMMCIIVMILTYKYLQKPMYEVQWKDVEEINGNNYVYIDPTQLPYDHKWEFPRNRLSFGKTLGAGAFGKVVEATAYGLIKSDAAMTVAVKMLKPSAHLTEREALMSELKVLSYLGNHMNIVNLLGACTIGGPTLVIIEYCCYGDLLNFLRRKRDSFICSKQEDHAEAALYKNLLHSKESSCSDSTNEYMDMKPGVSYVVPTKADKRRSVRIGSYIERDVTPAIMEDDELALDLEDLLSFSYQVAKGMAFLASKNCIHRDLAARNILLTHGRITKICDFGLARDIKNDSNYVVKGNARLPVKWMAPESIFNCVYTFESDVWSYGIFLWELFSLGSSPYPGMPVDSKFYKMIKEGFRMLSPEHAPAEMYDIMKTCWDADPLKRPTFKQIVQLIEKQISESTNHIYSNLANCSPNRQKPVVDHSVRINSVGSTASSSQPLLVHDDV
T25 sequence (P53671 whole entry): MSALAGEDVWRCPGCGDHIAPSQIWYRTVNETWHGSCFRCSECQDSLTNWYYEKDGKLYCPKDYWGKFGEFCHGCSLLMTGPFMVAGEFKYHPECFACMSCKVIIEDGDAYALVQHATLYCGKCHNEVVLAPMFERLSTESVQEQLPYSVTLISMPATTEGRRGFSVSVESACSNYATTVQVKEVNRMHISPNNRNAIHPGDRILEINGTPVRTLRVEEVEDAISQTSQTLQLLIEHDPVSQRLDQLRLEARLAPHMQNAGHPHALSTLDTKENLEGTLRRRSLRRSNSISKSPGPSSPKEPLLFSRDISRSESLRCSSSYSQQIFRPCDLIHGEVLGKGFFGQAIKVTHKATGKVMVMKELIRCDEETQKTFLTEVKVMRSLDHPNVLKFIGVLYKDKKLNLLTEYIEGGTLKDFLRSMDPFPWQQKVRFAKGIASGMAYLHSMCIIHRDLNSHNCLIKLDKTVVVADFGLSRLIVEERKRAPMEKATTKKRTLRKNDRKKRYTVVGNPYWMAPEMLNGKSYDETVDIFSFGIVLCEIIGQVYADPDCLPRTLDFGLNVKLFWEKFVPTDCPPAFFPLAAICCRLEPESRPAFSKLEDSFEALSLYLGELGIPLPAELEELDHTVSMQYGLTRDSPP
T27 sequence (Q96GX5 whole entry): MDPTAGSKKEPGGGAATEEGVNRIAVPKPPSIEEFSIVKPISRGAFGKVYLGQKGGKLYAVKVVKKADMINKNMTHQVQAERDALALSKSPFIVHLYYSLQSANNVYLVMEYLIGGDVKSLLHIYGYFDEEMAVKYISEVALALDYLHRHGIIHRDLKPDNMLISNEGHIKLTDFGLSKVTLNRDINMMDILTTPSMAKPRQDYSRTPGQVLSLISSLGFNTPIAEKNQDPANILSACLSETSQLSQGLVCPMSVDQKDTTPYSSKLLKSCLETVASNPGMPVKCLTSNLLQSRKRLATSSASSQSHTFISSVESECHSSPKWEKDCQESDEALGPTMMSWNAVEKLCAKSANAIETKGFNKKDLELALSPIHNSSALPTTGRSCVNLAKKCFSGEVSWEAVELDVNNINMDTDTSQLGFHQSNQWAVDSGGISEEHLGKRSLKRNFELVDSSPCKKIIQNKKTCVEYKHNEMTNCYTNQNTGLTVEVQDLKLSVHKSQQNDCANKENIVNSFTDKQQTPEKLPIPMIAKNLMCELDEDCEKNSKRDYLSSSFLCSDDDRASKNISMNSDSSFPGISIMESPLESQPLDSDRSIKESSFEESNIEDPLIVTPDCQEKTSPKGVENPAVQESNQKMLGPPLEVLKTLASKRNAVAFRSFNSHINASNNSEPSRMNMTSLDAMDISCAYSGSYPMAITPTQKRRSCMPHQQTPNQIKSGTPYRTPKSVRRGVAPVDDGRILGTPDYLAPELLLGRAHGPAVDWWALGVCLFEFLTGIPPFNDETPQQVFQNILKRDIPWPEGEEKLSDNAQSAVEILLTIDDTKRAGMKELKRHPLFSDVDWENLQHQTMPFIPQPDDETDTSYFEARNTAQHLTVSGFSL
T31 sequence (P10721 26-976 N822K): as the sequence (P10721 26-976 V559D/T670I) above, with D534V, I645T, N797K counted along it
T10 sequence (P10721 26-976 Y823D): as the sequence (P10721 26-976 V559D/T670I) above, with D534V, I645T, Y798D counted along it

## COc1ccc2[nH]c3c(=O)[nH]c4ccc(O)cc4c3c2c1 [Compound 55, 2-Hydroxy-10-methoxy-5,7-dihydro-6H-indolo[2,3-c]quinolin-6-one]
BMPR1A (ALK3)
  inhibition at 1 µM: 6%
STK38L (NDR2)
  inhibition at 1 µM: 8%
TAOK1
  inhibition at 1 µM: 35%
CDK14 (PFTK1)/cyclin Y
  inhibition at 1 µM: 35%
TAOK3 (JIK)
  inhibition at 1 µM: 24%
RIPK3
  inhibition at 1 µM: -6%
ABL1 M351T
  inhibition at 1 µM: 60%
TLK2
  inhibition at 1 µM: 88%
DDR2 N456S
  inhibition at 1 µM: 41%
NEK8
  inhibition at 1 µM: 16%
SLK
  inhibition at 1 µM: 40%
KIT Y823D
  inhibition at 1 µM: 30%
CDK5 (Inactive)
  inhibition at 1 µM: 21%
RET G691S
  inhibition at 1 µM: 91%
ERN1
  inhibition at 1 µM: 16%
CAMK2G (CaMKII gamma)
  inhibition at 1 µM: 30%
BRAF V599E
  inhibition at 1 µM: 6%
ALK T1151_L1152insT
  inhibition at 1 µM: 32%
CDK11 (Inactive)
  inhibition at 1 µM: 13%
CDK2/cyclin O
  inhibition at 1 µM: 61%
KIT V559D T670I
  inhibition at 1 µM: 32%
PRKACG (PRKAC gamma)
  inhibition at 1 µM: 17%
AAK1
  inhibition at 1 µM: 97%
MAP2K5 (MEK5)
  inhibition at 1 µM: 80%
STK32C (YANK3)
  inhibition at 1 µM: 1%
FGFR3 G697C
  inhibition at 1 µM: 35%
STK38 (NDR)
  inhibition at 1 µM: 12%
NUAK2
  inhibition at 1 µM: 53%
MLK4
  inhibition at 1 µM: 18%
LIMK2
  inhibition at 1 µM: 11%
PRKACB (PRKAC beta)
  inhibition at 1 µM: 35%
HUNK
  inhibition at 1 µM: 20%
ABL1 H396P
  inhibition at 1 µM: 61%
MASTL
  inhibition at 1 µM: 50%
ALK F1174L
  inhibition at 1 µM: 33%
PKN2 (PRK2)
  inhibition at 1 µM: 32%
DDR2 T654M
  inhibition at 1 µM: 73%
KIT N822K
  inhibition at 1 µM: 45%
GRK1
  inhibition at 1 µM: 50%

Reference: publication PMC9186362, “Design and biological evaluation of substituted 5,7-dihydro-6H-indolo[2,3-c]quinolin-6-one as novel selective Haspin inhibitors” (Journal of Enzyme Inhibition and Medicinal Chemistry, 2022)
